Assay results taken from US8134010B2, “Thiazole-based nitric oxide donors having aryl substituent(s) and uses thereof” (priority 2004, dated 2012).
“Also recorded” adds a separate entry of the source.

Legend:
isolated rat aorta [1] = experiment: Cross-tolerance studies on aortic rings (GTN / Pet-12 pre-treatment); format: cell-based; settings: aorta pre-treated with GTN
Experimental: Cross-tolerance studies were conducted using the same technique described above for measuring vasorelaxation of aortic rings from rats. Two groups of aortic rings samples were pre-treated with GTN, then one group was measured for vasorelaxation by GTN and the second group for vasorelaxation by Pet-12, an exemplary NO-donor according to the present invention. For the opposite cross-tolerance studies, two groups of aortic rings samples were pre-treated with Pet-12, then one group was measured for vasorelaxation by GTN and the second group for vasorelaxation by Pet-12.

isolated rat aorta [2] = experiment: In vitro induction of tolerance to NO releasing compounds (vasorelaxation of pre-exposed aortic rings); format: cell-based; settings: rings pre-treated with epinephrine and then with 0.44 mM of the same compound
Experimental: Aortic rings were prepared as described hereinabove, and were exposed to 0.44 mM GTN (vehicle was water:ethanol:propyleneglycol at proportional ratio of 1:1:1) for 1 hour before CCRC construction, to thereby induce tolerance to nitroglycerine. At the end of the tolerance induction period, rings were thrice washed with the path buffer (Krebs-bicrbonate) every 15 minutes for the following hour and then CCRC for vasorelaxation on GTN-induced tolerance rings were constructed for GTN (pretreated versus untreated rings, FIG. 15), in order to verify the ability to induce and measure GTN tolerance induction in vitro
Attempted induction of tolerance to the NO-donating compounds of the present invention was performed under the same conditions as for GTN. Thus, in an exemplary experiment, rings were exposed to 0.44 mM solution of Pet-3 in the attempt to induce tolerance for Pet-3. CCRC were then measured for the vasorelaxing effect of Pet-3 on a group of rings which were pre-exposed to Pet-3 as to induce tolerance to Pet-3, and for an untreated control group. The above protocol was repeated with Pet-2, Pet-7, Pet-8, Pet-12, Pet-24, Pet-43, Pet-149 and Pet-152.

Sprague-Dawley rats = experiment: Effects of Pet-120 on the endothelial dysfunction of angiotensin II induced hypertension in rats; format: in vivo, rat; settings: Pet-120 with Ang II for 14 days; aortic rings, acetylcholine curves
Experimental: Male Sprague-Dawley rats were housed in separate cages and maintained in a temperature regulated room on a 12-hour light/dark cycle. Throughout the experiments, animals had free access to water and standard rat chow. Rats weighing 270 to 310 grams at the beginning of the experiments were anesthetized with ketamine and xylazine (50 and 10 mg/kg, respectively), and an osmotic miniature pump (model 2002; Alza Co) was implanted subcutaneously at the dorsum of the neck. Rats were selected at random and divided into three groups. The first group used as control and received the vehicle alone. The second group received angiotensin II (Ang II, Sigma Chemical Co) infusion (n=3) at a rate of 80 ng/minute or vehicle (n=2; for a period of 14 days. The third group (n=3) received both Ang II (as the second group) and Pet-120 at rate 167 ng/minute for 14 days. At the end of the treatment, rats were anesthetized with ketamine and xylazine (50 and 10 mg/kg, respectively), and both the osmotic pumps and the catheters were removed, and the animals were allowed to recover for 24 hours before initiation of the experiment.
Thereafter a section of the thoracic aorta (with endothelium) was removed from the rats, dissected free of fat and connective tissue in oxygenated Krebs-Hanseliet solution (pH 7.4). […]

[3] = tested on: c-GMP in slices of thoracic aorta of rats; experiment: Cyclic-GMP measurement in aortic rat tissue (radioimmunoassay); format: cell-based
Experimental: GTN (10^−6 M) was added to the chamber and, 1 minute after exposure to the drug, rings (usually 3-5) were taken, wrapped with aluminum foil and immediately frozen in liquid nitrogen for storage. Control sample group was treated with the vehicle solution only. At the time of analysis, rings were thawed, blotted over a dry gauzed and weighted. A known weight of tissue was homogenized in 2 ml ice-cold modified Hank's balanced salt solution containing (in gram/liter) NaCl 8; KCl 0.4; glucose 1; KH2PO4 0.06; Na2HPO4 0.047; Phenol red 0.017 and further containing 25 mM EDTA (disodium salt). The homogenate was centrifuged at 4000 g (force units) for 10 minutes at 2-4° C. and the supernatant was thereafter transferred into fresh pre-cooled test tube containing 1 ml of acetonitrile. The tubes were vortex mixed for a few seconds and subsequently centrifuged at 4000 g for 5 minutes at 2-4° C., to remove the precipitated protein. Each supernatant was transferred into a clean test tube and evaporated to dryness under a stream of nitrogen at 55° C. The dry residue was reconstituted with 10 volumes of Tris-EDTA buffer pH 7.5 (0.05 M Tris containing 4 mM EDTA). Aliquots of 100 μl of the reconstituted solution in duplicate were used for c-GMP measurements using Amersham RIA kit, as is described in Haj-Yehia & Benet [Pharmacology, 1995, 273, 1, pp. 94-100]. Standard curves were plotted with six concentrations (0, 0.5, 1, 2, 4 and 8 pmoles of c-GMP per tube).
The NO-tolerance effect of GTN and NO-donor compounds according to the present invention was measured by following the production of c-GMP in slices of thoracic aorta of rats. Thus, the production of c-GMP was measured as described in the methods section above for the reference NO-donor compound GTN, and for the NO-donors of the present invention Pet-2, Pet-3, Pet-7, Pet-8, Pet-10, Pet-12, Pet-24, Pet-59, Pet-106, Pet-107, Pet-120, Pet-147, Pet-149, Pet-152, Pet-154 and Pet-155.

Cc1nc(-c2ccc([N+](=O)[O-])cc2)sc1CCO[N+](=O)[O-] [Pet-120, 4-Methyl-5-(2-nitrooxy-ethyl)-2-(4-nitro-phenyl)-thiazole]
vasorelaxation in rings made tolerant to GTN (cross-tolerance) (isolated rat aorta [1]): can even induce vasorelaxation in rat aorta of rats after tolerance has been induced therein by chronic use of GTN
tolerance induction in vitro (vasorelaxation, pre-treated versus control rings) (isolated rat aorta [2]): absence of tolerance induction; also recorded: lack of tolerance inducement
vasorelaxation after Ang II induced hypertension (Sprague-Dawley rats): notable capacity to induce vasorelaxation
accumulation of cyclic-GMP as compared with GTN ([3]; isolated rat aorta, radioimmunoassay): increased levels of cGMP
cGMP Post-infusion ([3]; rat thoracic aorta, post-infusion (repeated treatment)): 133 ± 12 pmol/g tissue
